Measurements: ChEMBL document CHEMBL6153125, “Harnessing the Magic Methyl Effect: Discovery of CLPP-2068 as a Novel HsClpP Activator for the Treatment of Diffuse Large B-Cell Lymphoma” (J Med Chem, 2025)
pEC50, pIC50: −log10 of the molar value.

Assays:
[1] = Half life in ICR mouse at 2 mg/kg, iv measured upto 24 hrs by LC-MS/MS analysis; settings: in vivo
in vivo [2] = settings: ICR, mouse, po, 10 mg/kg
Description: Tmax in ICR mouse at 10 mg/kg, po measured upto 24 hrs by LC-MS/MS analysis

[3] = Clearance in ICR mouse at 2 mg/kg, iv measured upto 24 hrs by LC-MS/MS analysis; settings: in vivo
in vivo [4] = settings: ICR, mouse, po, 10 mg/kg; remark: listed apart in the source
Description: Cmax in ICR mouse at 10 mg/kg, po measured upto 24 hrs by LC-MS/MS analysis

[5] = target: Voltage-gated inwardly rectifying potassium channel KCNH2 (Homo sapiens, UniProt Q12809)
SU-DHL-2 = experiment: Antiproliferative activity against human SU-DHL-2 cells assessed as cell viability measured after 72 hrs incubation by CellTiter-based growth inhibition assay; settings: SU-DHL-2, 72 h
[6] = Metabolic stability in human liver microsomes assessed as intrinsic clearance
[7] = Metabolic stability in rat liver microsomes assessed as intrinsic clearance
[8] = MRT in ICR mouse at 10 mg/kg, po measured upto 24 hrs by LC-MS/MS analysis; settings: in vivo
[9] = Metabolic stability in rat liver microsomes assessed as hepatic extraction
SU-DHL-6 = experiment: Antiproliferative activity against human SU-DHL-6 cells assessed as cell viability measured after 72 hrs incubation by CellTiter-based growth inhibition assay; settings: SU-DHL-6, 72 h
[10] = Metabolic stability in rat liver microsomes assessed as half life
[11] = Metabolic stability in rat liver microsomes assessed as hepatic clearance
[12] = Volume of distribution at steady state in ICR mouse at 2 mg/kg measured upto 24 hrs by LC-MS/MS analysis; settings: in vivo, iv
in vivo [13] = settings: ICR, mouse, po, 10 mg/kg; remark: listed apart in the source
Description: AUC (0 to t) in ICR mouse at 10 mg/kg, po measured upto 24 hrs by LC-MS/MS analysis

[14] = AUCt in ICR mouse at 2 mg/kg, iv measured upto 24 hrs by LC-MS/MS analysis; settings: in vivo
[15] = Metabolic stability in rat liver microsomes assessed as apparent intrinsic clearance
[16] = Metabolic stability in human liver microsomes assessed as apparent intrinsic clearance
[17] = MRT in ICR mouse at 2 mg/kg, iv measured upto 24 hrs by LC-MS/MS analysis; settings: in vivo
Toledo = experiment: Antiproliferative activity against human Toledo cells assessed as cell viability measured after 72 hrs incubation by CellTiter-based growth inhibition assay
[18] = Half life in ICR mouse at 10 mg/kg, po measured upto 24 hrs by LC-MS/MS analysis; settings: in vivo
[19] = Metabolic stability in human liver microsomes assessed as half life
SUD4 = experiment: Antiproliferative activity against human SU-DHL-4 cells assessed as cell viability measured after 72 hrs incubation by CellTiter-based growth inhibition assay; settings: SU-DHL-4, 72 h
[20] = Metabolic stability in human liver microsomes assessed as hepatic extraction
[21] = target: ATP-dependent Clp protease proteolytic subunit, mitochondrial (Homo sapiens, UniProt Q16740); experiment: Activation of human ClpP extracted from Escherichia coli using Ac-WLA-AMC as substrate assessed as fluorescence signal measured after 10 mins incubation
OCI-Ly3 = experiment: Antiproliferative activity against human OCI-Ly3 cells assessed as cell viability measured after 72 hrs incubation by CellTiter-based growth inhibition assay; settings: OCI-Ly3, 72 h
in vivo [22] = settings: ICR, mouse, po, 10 mg/kg; remark: listed apart in the source
Description: Oral bioavailability in ICR mouse at 10 mg/kg measured upto 24 hrs by LC-MS/MS analysis

[23] = Metabolic stability in human liver microsomes assessed as hepatic clearance
OCI-Ly10 = experiment: Antiproliferative activity against human OCI-Ly10 cells assessed as cell viability measured after 72 hrs incubation by CellTiter-based growth inhibition assay; settings: OCI-Ly10, 72 h
[24] = Clearance in ICR mouse at 5 mg/kg, iv measured upto 24 hrs by LC-MS/MS analysis; settings: in vivo
in vivo [25] = settings: ICR, mouse, iv, 5 mg/kg
[26] = MRT in ICR mouse at 15 mg/kg, po measured upto 24 hrs by LC-MS/MS analysis; settings: in vivo
[27] = Half life in ICR mouse at 15 mg/kg, po measured upto 24 hrs by LC-MS/MS analysis; settings: in vivo
in vivo [28] = settings: ICR, mouse, po, 15 mg/kg
Description: Oral bioavailability in ICR mouse at 15 mg/kg measured upto 24 hrs by LC-MS/MS analysis

in vivo [29] = settings: ICR, mouse, po, 15 mg/kg; remark: listed apart in the source
Description: Tmax in ICR mouse at 15 mg/kg, po measured upto 24 hrs by LC-MS/MS analysis

in vivo [30] = settings: ICR, mouse, po, 15 mg/kg; remark: listed apart in the source
Description: Cmax in ICR mouse at 15 mg/kg, po measured upto 24 hrs by LC-MS/MS analysis

[31] = Half life in ICR mouse at 5 mg/kg, iv measured upto 24 hrs by LC-MS/MS analysis; settings: in vivo
[32] = MRT in ICR mouse at 5 mg/kg, iv measured upto 24 hrs by LC-MS/MS analysis; settings: in vivo
in vivo [33] = settings: ICR, mouse, po, 15 mg/kg; remark: listed apart in the source
Description: AUC (0 to t) in ICR mouse at 15 mg/kg, po measured upto 24 hrs by LC-MS/MS analysis

[34] = target: T1, 3-hydroxy-3-methylglutaryl-coenzyme A reductase (Rattus norvegicus, UniProt P51639)
T1 sequence (P51639 whole entry): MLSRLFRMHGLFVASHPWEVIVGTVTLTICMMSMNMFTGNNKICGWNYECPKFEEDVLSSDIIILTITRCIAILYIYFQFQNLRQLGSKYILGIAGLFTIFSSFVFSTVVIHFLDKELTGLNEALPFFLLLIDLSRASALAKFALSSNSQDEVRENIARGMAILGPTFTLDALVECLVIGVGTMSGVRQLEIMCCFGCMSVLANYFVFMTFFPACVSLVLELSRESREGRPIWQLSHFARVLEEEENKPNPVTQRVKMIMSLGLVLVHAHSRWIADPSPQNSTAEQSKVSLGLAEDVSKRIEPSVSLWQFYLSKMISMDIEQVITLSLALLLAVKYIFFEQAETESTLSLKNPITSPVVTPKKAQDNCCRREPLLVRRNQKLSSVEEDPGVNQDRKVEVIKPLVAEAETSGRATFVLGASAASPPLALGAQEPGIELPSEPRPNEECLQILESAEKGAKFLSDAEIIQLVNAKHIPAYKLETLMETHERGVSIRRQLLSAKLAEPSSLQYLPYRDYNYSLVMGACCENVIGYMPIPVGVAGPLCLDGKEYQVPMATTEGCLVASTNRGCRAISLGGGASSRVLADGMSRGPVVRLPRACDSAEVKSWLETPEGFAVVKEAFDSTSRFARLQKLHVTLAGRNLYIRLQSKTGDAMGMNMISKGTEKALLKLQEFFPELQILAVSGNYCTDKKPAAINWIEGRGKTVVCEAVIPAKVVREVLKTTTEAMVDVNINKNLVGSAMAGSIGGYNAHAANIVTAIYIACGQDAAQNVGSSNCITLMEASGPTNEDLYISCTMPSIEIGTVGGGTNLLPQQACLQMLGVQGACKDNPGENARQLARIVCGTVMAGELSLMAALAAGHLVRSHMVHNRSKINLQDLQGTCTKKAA
Description: Inhibition of HMG-CoA reductase activity in rat liver microsomes

Sequence of ATP-dependent Clp protease proteolytic subunit, mitochondrial (Q16740 whole entry): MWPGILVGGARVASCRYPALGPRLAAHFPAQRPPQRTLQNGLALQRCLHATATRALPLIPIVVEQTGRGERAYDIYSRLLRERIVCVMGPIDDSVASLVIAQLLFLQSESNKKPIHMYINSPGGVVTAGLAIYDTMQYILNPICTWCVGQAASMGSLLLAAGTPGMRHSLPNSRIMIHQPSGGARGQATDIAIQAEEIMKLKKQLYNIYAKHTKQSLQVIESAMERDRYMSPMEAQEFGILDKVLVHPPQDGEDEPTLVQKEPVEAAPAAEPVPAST
Sequence of Voltage-gated inwardly rectifying potassium channel KCNH2 (Q12809 whole entry): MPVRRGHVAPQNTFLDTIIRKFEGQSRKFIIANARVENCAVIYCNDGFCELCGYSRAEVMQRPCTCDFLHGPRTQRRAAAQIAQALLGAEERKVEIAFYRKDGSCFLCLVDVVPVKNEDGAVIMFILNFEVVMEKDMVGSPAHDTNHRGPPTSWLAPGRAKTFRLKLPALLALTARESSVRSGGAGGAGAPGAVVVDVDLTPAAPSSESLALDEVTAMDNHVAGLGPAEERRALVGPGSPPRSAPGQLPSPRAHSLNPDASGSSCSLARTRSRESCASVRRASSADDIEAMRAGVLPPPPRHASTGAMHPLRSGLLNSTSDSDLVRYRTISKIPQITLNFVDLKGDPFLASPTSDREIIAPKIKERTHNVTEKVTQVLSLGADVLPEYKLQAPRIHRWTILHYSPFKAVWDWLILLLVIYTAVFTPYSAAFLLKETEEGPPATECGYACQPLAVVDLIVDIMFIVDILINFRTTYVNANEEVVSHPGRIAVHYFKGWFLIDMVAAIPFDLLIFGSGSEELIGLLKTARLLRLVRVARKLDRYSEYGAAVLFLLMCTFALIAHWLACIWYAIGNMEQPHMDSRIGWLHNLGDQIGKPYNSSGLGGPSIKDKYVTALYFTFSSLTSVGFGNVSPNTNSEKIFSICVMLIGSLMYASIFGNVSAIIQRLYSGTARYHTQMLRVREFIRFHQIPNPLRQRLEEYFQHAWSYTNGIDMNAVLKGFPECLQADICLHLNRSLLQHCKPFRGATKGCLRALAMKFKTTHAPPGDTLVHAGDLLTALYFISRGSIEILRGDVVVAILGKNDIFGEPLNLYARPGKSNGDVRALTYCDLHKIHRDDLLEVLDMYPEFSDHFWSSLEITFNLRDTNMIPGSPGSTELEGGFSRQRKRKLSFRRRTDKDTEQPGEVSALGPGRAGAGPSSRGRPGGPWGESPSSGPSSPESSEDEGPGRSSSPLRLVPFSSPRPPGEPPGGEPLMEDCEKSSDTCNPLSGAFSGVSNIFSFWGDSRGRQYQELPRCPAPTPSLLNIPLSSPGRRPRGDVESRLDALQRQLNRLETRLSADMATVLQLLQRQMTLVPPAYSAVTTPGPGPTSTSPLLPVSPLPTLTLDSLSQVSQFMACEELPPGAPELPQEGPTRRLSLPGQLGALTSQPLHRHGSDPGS

O=C1C2=C(CCN(Cc3ccccc3)C2)N2CCN=C2N1Cc1ccc(C(F)(F)F)cc1
half-life at 24 h [1]: 2.01 h
Tmax at 24 h (in vivo [2]): 0.42 h
clearance at 24 h [3]: 1.31 L/h/kg
Cmax at 24 h (in vivo [4]): 0.873 µg/mL
pIC50 [5]: < 4.40
pIC50 (SU-DHL-2): 6.65
CLint scaled [6]: 20.3 L/h/kg
CLint scaled [7]: 29.2 L/h/kg
MRT at 24 h [8]: 4.65 h
hepatic extraction ratio [9]: 0.941
pIC50 (SU-DHL-6): 7.04
half-life [10]: 7.1 h
CLhep predicted [11]: 3.11 L/h/kg
Vd at 24 h [12]: 2.25 L/kg
AUC(0-t) at 24 h (in vivo [13]): 3.35 µg·h/mL
AUC(0-t) at 24 h [14]: 1.53 µg·h/mL
CLint scaled [15]: 52.6 L/h/kg
CLint scaled [16]: 23.8 L/h/kg
MRT at 24 h [17]: 1.72 h
pIC50 (Toledo): < 6.60
half-life at 24 h [18]: 3.75 h
half-life [19]: 10.2 h
pIC50 (SUD4): 6.60
hepatic extraction ratio [20]: 0.95
pEC50 [21]: 6.81
pIC50 (OCI-Ly3): 6.83
bioavailability at 24 h (in vivo [22]): 43.7%
CLhep predicted [23]: 1.18 L/h/kg

Cc1cc(Br)ccc1CNc1nc2c(c(=O)[nH]1)CN(Cc1cccc(C#N)c1)[C@H](C)C2
pIC50 (OCI-Ly10): 7.06
pEC50 [21]: 7.03

Cc1ccc(CNc2nc3c(c(=O)[nH]2)CN(Cc2cccc(C#N)c2)[C@H](C)C3)cc1
pIC50 (OCI-Ly10): 6.93
pEC50 [21]: 7.57

C[C@@H]1Cc2nc(NCC3CC3)[nH]c(=O)c2CN1Cc1cccc(C#N)c1
pIC50 (OCI-Ly10): 5.39
pEC50 [21]: 5.84

C[C@@H]1Cc2nc(NCc3ccc(C(F)(F)F)cc3)[nH]c(=O)c2CN1Cc1ccccc1F
pIC50 (OCI-Ly10): 5.51
pEC50 [21]: 5.89

C[C@@H]1Cc2nc(NCc3ccc(C(F)(F)F)cc3)[nH]c(=O)c2CN1CC1CCCCC1
pIC50 (OCI-Ly10): 6.10
pEC50 [21]: 6.52

Cc1ccccc1CN1C(=O)C2=C(CCN(Cc3ccccc3)C2)N2CCN=C12.Cl.Cl.O
CLint scaled [6]: 11.2 L/h/kg
clearance at 24 h [24]: 2.56 L/h/kg
AUC(0-t) at 24 h (in vivo [25]): 1.96 µg·h/mL
MRT at 24 h [26]: 1.46 h
half-life at 24 h [27]: 1.05 h
bioavailability at 24 h (in vivo [28]): 15.2%
Tmax at 24 h (in vivo [29]): 0.42 h
Cmax at 24 h (in vivo [30]): 0.566 µg/mL
half-life at 24 h [31]: 0.91 h
MRT at 24 h [32]: 0.86 h
half-life [19]: 9.3 h
AUC(0-t) at 24 h (in vivo [33]): 0.894 µg·h/mL

C[C@@H]1Cc2nc(N3CCC(c4ccccc4)C3)[nH]c(=O)c2CN1Cc1cccc(C#N)c1 (stereo partly drawn)
pIC50 (OCI-Ly10): 5.24
pEC50 [21]: 6.15

Cc1ccccc1CNc1nc2c(c(=O)[nH]1)CN(Cc1cccc(C#N)c1)[C@H](C)C2
pIC50 (OCI-Ly10): 7.35
pEC50 [21]: 7.36

C[C@@H]1Cc2nc(NCc3ccc(C(F)(F)F)cc3)[nH]c(=O)c2CN1Cc1cccc2ccccc12
pIC50 (OCI-Ly10): 5.09
pEC50 [21]: 6.12

C[C@@H]1Cc2nc(NCc3ccc(Br)c(F)c3)[nH]c(=O)c2CN1Cc1cccc(C#N)c1
pIC50 (OCI-Ly10): 7.32
pEC50 [21]: 6.58

C[C@@H]1Cc2nc(NCc3ccc(C(F)(F)F)cc3)[nH]c(=O)c2CN1Cc1ccc(C#N)cc1
pIC50 (OCI-Ly10): 5.22
pEC50 [21]: 5.87

CC[C@H](C)C(=O)O[C@H]1CCC=C2C=C[C@H](C)[C@H](CC[C@@H]3C[C@@H](O)CC(=O)O3)[C@H]21 [MEVASTATIN]
pIC50 [34]: 8.25

C[C@@H]1Cc2nc(NCc3ccc(Br)cc3)[nH]c(=O)c2CN1Cc1cccc(C#N)c1
pIC50 [5]: 5.31

C[C@@H]1Cc2nc(NCc3cccc4ccccc34)[nH]c(=O)c2CN1Cc1cccc(C#N)c1
pIC50 (OCI-Ly10): 6.98
pEC50 [21]: 7.17

Cc1cccc(CNc2nc3c(c(=O)[nH]2)CN(Cc2cccc(C#N)c2)[C@H](C)C3)c1
pIC50 (OCI-Ly10): 6.83
pEC50 [21]: 6.95

C[C@@H]1Cc2nc(NCc3ccc(C(F)(F)F)cc3)[nH]c(=O)c2CN1Cc1cccc(Br)c1
pIC50 (OCI-Ly10): 7.30
pEC50 [21]: 7.20
